Experimental findings from patent publication US20230285372A1, “Pharmaceutical use of (E)-3-arylheterocyclylprop-2-enoic acid derivatives” (MEDCURIUS INC., priority 2020, published 2023) are described below.

“And” between values parts separate entries of the source, which are not always exact repeats. Equal entries are not always repeated.

The test system of one test is Nrf2. Put plainly: Nrf2 protein level in the nucleus of HT-22 cells, Western Blot. It counts as cell-based, mouse. Particulars: 1.25 μM and 0.625 μM, 24 hours, vs control group. The source says: (§1) As a transcription factor, Nrf2 needs to enter the nucleus and combine with ARE sequence to play a role in transcriptional activation. Therefore, Nrf2 protein level in the nucleus is an important prerequisite for the activation of Nrf2 signaling pathway. NQO-1 and HO-1 are target genes regulated by Nrf2, and the increase of their protein levels is an important sign of activation of the Nrf2 signaling pathway.
(§2) HT-22 cells in logarithmic growth phase were selected, the culture medium was discarded, the cells were digested with 0.25% Trypsin containing EDTA, and cell suspension was made. Cell density was adjusted to 50000/ml with DMEM/F12 medium (containing 10% FBS and 1% double antibody) and it was inoculated to 6-well plate, with 2000 μL/well, the number of cells per well was 100, 000, and the cells were cultured in a cell incubator at 37° C. in an atmosphere containing 5% CO2 for 24 hours. Then, the medium of each well was replaced with new 1980 μL DMEM/F12 medium. […] After 24 hours, the cells were collected, nuclear protein and cytoplasmic protein were extracted, and the level of Nrf2 in the nucleus and the expression of NQO-1 and HO-1 in cytoplasm were detected by Western Blot.
In general terms: Immunoblotting shows a protein as a band on a membrane.

In a further test the test system is NQO-1. Nature of the test: NQO-1 expression in HT-22 cytoplasm, Western Blot. It counts as cell-based, mouse. To be noted: HT-22 cells, 1.25 μM, 24 hours, vs control group.
Description: as §1, §2

For the next test, the system named is HO-1. Nature of the test: HO-1 expression in HT-22 cytoplasm, Western Blot. To be noted: HT-22 cells, 1.25 μM and 0.625 μM, 24 hours, vs control group. Type of test: cell-based, mouse.
Description: as §1, §2

In a further test the test system is HT-22 cells. Nature of the test: Protective effect on HT-22 cell damage caused by L-glutamate monosodium salt. Type of test: cell-based, mouse. Particulars: 15 mM L-glutamate. On the procedure:
(§3) Well-proliferated HT-22 cells, derived from mouse hippocampal neuronal cells in logarithmic growth phase, were selected, and they were counted after being subjected to trypsin digestion and dispersion. The cell density was adjusted with DMEM/F12 medium (containing 10% FBS and 1% double antibody). The cells were then inoculated in a 96-well plate at a density of 2,000 cells per well, and cultured in a cell incubator at 37° C. in atmosphere containing 5% CO2 for 24 hours. For the control group and the L-glutamate monosodium salt group (model group), serum-free DMEM/F12 medium was added, and the other wells were added with tested compounds of different concentrations; except that the serum-free DMEM/F12 medium was added to the control group. L-glutamate monosodium salt solution at the final concentration of 15 mM was added to the remaining wells. After 24 hours, the cell viability was detected with a luminescent cell viability assay kit.
as §3, with “group,” for “group.”
as §3, with “2.000” for “2,000”, “group,” for “group.”

The subject of test [1] is tyrosine hydroxylase (TH). Put plainly: Tyrosine hydroxylase (TH) level in midbrain, immunohistochemistry, MPTP mouse. Type of test: in vivo. To be noted: medium and high dosage of I-5 (10 and 20 mg/kg bid); vs model group.
Description: Male C57 mouse were screened for their motor function by a mouse rod-rotating test, and unqualified ones were excluded from the test. […] MPTP was injected subcutaneously every 4 days in the model group and the drug administration group with a dosage of 25 mg/kg for 40 consecutive days. Each group of I-5 was administered once a day at 8:00 am and 8:00 pm (by intragastric administration), twice in total. The control group and model group were given the corresponding solvent once a day in the morning (by intragastric administration) while the positive control group (L-DOPA) was given L-DOPA once a day in the morning (by intragastric administration). The intragastric volume was 0.1 ml/10 g body weight, and the behavior test was started 40 days later. […] The storage time of the prepared liquid medicine was not more than 24 hours.
Tissues from all the animals were collected on the second day after the end of the behavioral experiment. […] The level of tyrosine hydroxylase (TH), a marker protein of dopaminergic neurons, was detected by immumohistochemistry, and α-synuclein protein level and phosphorylation level of the protein were detected by Western blot.
In another test the test system is p-synuclein. Put plainly: Phosphorylated α-synuclein (p-synuclein) level in midbrain, Western blot, MPTP mouse. To be noted: vs model group. It counts as in vivo. An excerpt:
The core pathological change of Parkinson's disease is the loss of dopaminergic neurons. Tyrosine hydroxylase (TH), the rate-limiting enzyme in dopamine synthesis, is the landmark protein of the dopaminergic neurons. Therefore, the decrease in its level indicates the loss of the dopaminergic neurons. A key protein for the occurrence and development of Parkinson's disease is α-synuclein protein, and the abnormal modification (hyperphosphorylation) of this protein can inhibit microtubule polymerization, enhance oxidative stress, and thus accelerate the death of the dopaminergic neurons.
(§4) Male C57 mouse were screened for their motor function by a mouse rod-rotating test, and unqualified ones were excluded from the test. […] MPTP was injected subcutaneously every 4 days in the model group and the drug administration group with a dosage of 25 mg/kg for 40 consecutive days. Each group of I-5 was administered once a day at 8:00 am and 8:00 pm (by intragastric administration), twice in total. […] The intragastric volume was 0.1 ml/10 g body weight, and the behavior test was started 40 days later. […] The storage time of the prepared liquid medicine was not more than 24 hours.
Tissues from all the animals were collected on the second day after the end of the behavioral experiment. Hearts from six animals in each group were perfused and fixed with paraformaldehyde for pathological analysis of paraffin sections. Brain tissue of the remaining animals was separated on ice, and brain areas (midbrain) related to Parkinson's disease were collected. After being frozen with liquid nitrogen, they were stored in a refrigerator at −80° C. for protein analysis. The level of tyrosine hydroxylase (TH), a marker protein of dopaminergic neurons, was detected by immumohistochemistry, and α-synuclein protein level and phosphorylation level of the protein were detected by Western blot.

Test [2] has as its system MPTP-induced Parkinson's disease mouse. Put plainly: Model of MPTP-induced Parkinson's disease mouse, overall conclusion. To be noted: improves MPTP-induced dyskinesia and inhibits neurodegeneration; bid intragastric. It counts as in vivo. On the procedure:
as §4

`N#C/C=C/c1ccccn1` [Compound I-5]: the “protein level of Nrf2 in the nucleus” value with Nrf2 is “significantly higher than that of the control group”. Also, in the test on NQO-1, the “protein level of NQO-1” value is on record as “increased significantly”. In the test on HO-1, the “protein level of HO-1” value is “increased significantly”. Moreover, the “protection of HT22 cells against L-glutamate monosodium salt damage, in words” value in the test on HT-22 cells (HT22 cells, comparison with positive control drug DMF) is “better effects than the positive control drug DMF”. In addition, the viability (as a rule, a read-out of living cells in per cent, often relative to untreated cells) at 0.156 µM with HT-22 cells (Mus musculus, HT-22, 24 h, Table 1, Conc 0.156 μm, 24 hours, L-Glu alone 27.73 (I-5 32.92), read-out: cell viability) was 79.3%. Also, the viability at 0.625 µM in the test on HT-22 cells (Mus musculus, HT-22, 24 h, Table 1, Conc 0.625 μm, 24 hours, L-Glu alone 27.73 (I-5 32.92), read-out: cell viability) turned out to be 73.7%. In the test on HT-22 cells (Mus musculus, HT-22, 24 h, Table 1, Conc 2.5 μm, 24 hours, L-Glu alone 27.73 (I-5 32.92), read-out: cell viability), the viability at 2.5 µM came out at 57.6%. In the test on HT-22 cells (Mus musculus, HT-22, 24 h, Table 1, Conc 5 μm, 24 hours, L-Glu alone 27.73 (I-5 32.92), read-out: cell viability), the viability at 5 µM turned out to be 58.2%. Moreover, the “TH positive area of substantia nigra” value in test [1] is listed as “significantly increase the TH positive area”. Also, the “p-synuclein protein level in the midbrain” value with p-synuclein (I-5 10 mg/kg, p<0.01) was “significantly lower than that in the model group”; with p-synuclein (I-5 20 mg/kg, p<0.05) it was “significantly lower than that in the model group”. For the same compound, the effective doses in test [2] is 10 mg/kg and 20 mg/kg.
